{"source": "ChEMBL document CHEMBL3301451", "about": "“MMV Malaria Box gametocyte functional viability assay screening”", "type_in_all_cases": "functional", "design_in_all_cases": "concentration or dose not given beside the values", "key": {"Plasmodium berghei": {"test_system": "Plasmodium berghei", "experiment": "MMV: P. berghei-infected blood was withdrawn from mice by cardiac pucture before being immediately added to ookinete culture medium containing test compounds. 26 hr later, GFP-positive ookinetes were identified and counted by automated microscopy. All compounds were tested in 4 independent experiments and data presented here is the mean."}, "Plasmodium falciparum [1]": {"test_system": "Plasmodium falciparum", "experiment": "(§1) MMV: P. falciparum NF54 functionally mature Stage V gametocytes were incubated for 24 hr in the presence of the test compounds. Gamete formation was then triggered by addition of 2uM xantheurenic acid and temperature decrease to ~20C. Male gamete exflagellation was recorded and analysed by automated microscopy after 20 min. All compounds were tested in 4 independent experiments and data presented here is the mean."}, "Plasmodium falciparum [2]": {"test_system": "Plasmodium falciparum", "experiment": "as §1, with “Female” for “Male”, “formation” for “exflagellation”, “24 hr later” for “and analysed”, “detection of surface labelling of female gametes with a Cy3-conjugated antibody reactive to Pfs25.” for “after 20 min.”", "conditions": "NF54, 24 h"}}, "data": [{"compound": "CCN(CC)CCCNc1nc(-c2ccc(Cl)cc2)nc2ccccc12", "values": [{"measurement": "inhibition", "setting": "Plasmodium berghei", "value": -4.546, "unit": "%"}, {"measurement": "inhibition", "setting": "Plasmodium falciparum [1]", "value": -49.2, "unit": "%"}, {"measurement": "inhibition", "setting": "Plasmodium falciparum [2]", "value": -19.2, "unit": "%"}]}, {"compound": "COc1ccccc1N1C(=N)SC(=Cc2ccc(OCc3ccccc3F)cc2)C1=O", "values": [{"measurement": "inhibition", "setting": "Plasmodium berghei", "value": 33.34, "unit": "%"}, {"measurement": "inhibition", "setting": "Plasmodium falciparum [1]", "value": 12.8, "unit": "%"}, {"measurement": "inhibition", "setting": "Plasmodium falciparum [2]", "value": 10.4, "unit": "%"}]}, {"compound": "O=C(Nc1ccc(-c2nc3cc(NC(=O)c4ccc(Cl)cc4)ccc3[nH]2)cc1)c1ccc(Cl)cc1", "values": [{"measurement": "inhibition", "setting": "Plasmodium berghei", "value": -7.523, "unit": "%"}, {"measurement": "inhibition", "setting": "Plasmodium falciparum [1]", "value": -17.6, "unit": "%"}, {"measurement": "inhibition", "setting": "Plasmodium falciparum [2]", "value": -21.8, "unit": "%"}]}, {"compound": "CCOC(=O)c1cnc2c(C)cccc2c1Nc1ccc(C(C)=O)cc1", "values": [{"measurement": "inhibition", "setting": "Plasmodium berghei", "value": 1.277, "unit": "%"}, {"measurement": "inhibition", "setting": "Plasmodium falciparum [1]", "value": 13, "unit": "%"}, {"measurement": "inhibition", "setting": "Plasmodium falciparum [2]", "value": -9.63, "unit": "%"}]}, {"compound": "CC1CCN(Cc2c(O)ccc3cc(-c4nc5ccccc5s4)c(=O)oc23)CC1", "values": [{"measurement": "inhibition", "setting": "Plasmodium berghei", "value": 100, "unit": "%"}, {"measurement": "inhibition", "setting": "Plasmodium falciparum [1]", "value": -4.49, "unit": "%"}, {"measurement": "inhibition", "setting": "Plasmodium falciparum [2]", "value": -24.7, "unit": "%"}]}, {"compound": "CCc1ccc(CNCC(O)c2ccccc2)cc1.Cl", "note": "(configuration not stated)", "values": [{"measurement": "inhibition", "setting": "Plasmodium berghei", "value": -12.46, "unit": "%"}, {"measurement": "inhibition", "setting": "Plasmodium falciparum [1]", "value": -40.9, "unit": "%"}, {"measurement": "inhibition", "setting": "Plasmodium falciparum [2]", "value": -20.9, "unit": "%"}]}, {"compound": "CC(Oc1ccc(NC(=O)c2cccs2)cc1)C(=O)c1ccc(Cl)cc1", "note": "(configuration not stated)", "values": [{"measurement": "inhibition", "setting": "Plasmodium berghei", "value": 73.22, "unit": "%"}, {"measurement": "inhibition", "setting": "Plasmodium falciparum [1]", "value": 25.6, "unit": "%"}, {"measurement": "inhibition", "setting": "Plasmodium falciparum [2]", "value": -14, "unit": "%"}]}, {"compound": "COc1ccc(OC)c(C2C3=C(CC(C)(C)CC3=O)N(c3ccc(Cl)c(Cl)c3)C3=C2C(=O)CC(C)(C)C3)c1", "values": [{"measurement": "inhibition", "setting": "Plasmodium berghei", "value": -8.364, "unit": "%"}, {"measurement": "inhibition", "setting": "Plasmodium falciparum [1]", "value": -60, "unit": "%"}, {"measurement": "inhibition", "setting": "Plasmodium falciparum [2]", "value": -10.6, "unit": "%"}]}, {"compound": "CCN1CCN(Cc2ccc(NC(=O)c3cc4ccc5cccnc5c4[nH]3)cc2)CC1", "values": [{"measurement": "inhibition", "setting": "Plasmodium berghei", "value": -14.48, "unit": "%"}, {"measurement": "inhibition", "setting": "Plasmodium falciparum [1]", "value": 15.9, "unit": "%"}, {"measurement": "inhibition", "setting": "Plasmodium falciparum [2]", "value": -5.39, "unit": "%"}]}, {"compound": "COc1ccc(C(=O)NC(c2ccccc2Cl)c2cc(Cl)c3cccnc3c2O)cc1", "note": "(configuration not stated)", "values": [{"measurement": "inhibition", "setting": "Plasmodium berghei", "value": -9.997, "unit": "%"}, {"measurement": "inhibition", "setting": "Plasmodium falciparum [1]", "value": 2.11, "unit": "%"}, {"measurement": "inhibition", "setting": "Plasmodium falciparum [2]", "value": -6.93, "unit": "%"}]}, {"compound": "CCCc1cc(O)c2c3c(c(=O)oc2c1)CN(C)CC3", "values": [{"measurement": "inhibition", "setting": "Plasmodium berghei", "value": -29.34, "unit": "%"}, {"measurement": "inhibition", "setting": "Plasmodium falciparum [1]", "value": 2.76, "unit": "%"}, {"measurement": "inhibition", "setting": "Plasmodium falciparum [2]", "value": -29.9, "unit": "%"}]}, {"compound": "O=C(Nc1ccc(-c2nc3ccccc3[nH]2)cc1)c1ccc(Cl)c(Cl)c1", "values": [{"measurement": "inhibition", "setting": "Plasmodium berghei", "value": -25.94, "unit": "%"}, {"measurement": "inhibition", "setting": "Plasmodium falciparum [1]", "value": 4.23, "unit": "%"}, {"measurement": "inhibition", "setting": "Plasmodium falciparum [2]", "value": -34.9, "unit": "%"}]}, {"compound": "Br.CCN(CC)S(=O)(=O)c1ccc(-c2csc(Nc3ccc(C)c(C)c3)n2)cc1", "values": [{"measurement": "inhibition", "setting": "Plasmodium berghei", "value": -11.5, "unit": "%"}, {"measurement": "inhibition", "setting": "Plasmodium falciparum [1]", "value": 21.9, "unit": "%"}, {"measurement": "inhibition", "setting": "Plasmodium falciparum [2]", "value": -51.5, "unit": "%"}]}, {"compound": "Br.CCn1c2c(c(=N)c3c1CCC3)CCCC2", "values": [{"measurement": "inhibition", "setting": "Plasmodium berghei", "value": -17.86, "unit": "%"}, {"measurement": "inhibition", "setting": "Plasmodium falciparum [1]", "value": -42.4, "unit": "%"}, {"measurement": "inhibition", "setting": "Plasmodium falciparum [2]", "value": -26.2, "unit": "%"}]}, {"compound": "CN(C)c1ccc(C=Cc2nc(=O)c3ccccc3o2)cc1", "values": [{"measurement": "inhibition", "setting": "Plasmodium berghei", "value": 54.94, "unit": "%"}, {"measurement": "inhibition", "setting": "Plasmodium falciparum [1]", "value": 17.6, "unit": "%"}, {"measurement": "inhibition", "setting": "Plasmodium falciparum [2]", "value": -16.7, "unit": "%"}]}, {"compound": "COc1ccc(CN2CCN(Cc3ccccc3)CC2)c(O)c1", "values": [{"measurement": "inhibition", "setting": "Plasmodium berghei", "value": -17.51, "unit": "%"}, {"measurement": "inhibition", "setting": "Plasmodium falciparum [1]", "value": -11.1, "unit": "%"}, {"measurement": "inhibition", "setting": "Plasmodium falciparum [2]", "value": -16.4, "unit": "%"}]}, {"compound": "Cc1cc(N(C)C)nc(Nc2ccc(NC(=O)Nc3ccccc3)cc2)n1", "values": [{"measurement": "inhibition", "setting": "Plasmodium berghei", "value": -9.07, "unit": "%"}, {"measurement": "inhibition", "setting": "Plasmodium falciparum [1]", "value": 33.6, "unit": "%"}, {"measurement": "inhibition", "setting": "Plasmodium falciparum [2]", "value": -35.4, "unit": "%"}]}, {"compound": "CN1C=C(c2ccc3ccccc3n2)C(c2c[nH]c3ccccc23)c2ccccc21", "note": "(configuration not stated)", "values": [{"measurement": "inhibition", "setting": "Plasmodium berghei", "value": -19.58, "unit": "%"}, {"measurement": "inhibition", "setting": "Plasmodium falciparum [1]", "value": -6.39, "unit": "%"}, {"measurement": "inhibition", "setting": "Plasmodium falciparum [2]", "value": -36.4, "unit": "%"}]}, {"compound": "O=C(NC1CCCC1)c1ccc(N2CCC(NCc3cccc(C(F)(F)F)c3)CC2)cc1", "values": [{"measurement": "inhibition", "setting": "Plasmodium berghei", "value": -10.11, "unit": "%"}, {"measurement": "inhibition", "setting": "Plasmodium falciparum [1]", "value": -12, "unit": "%"}, {"measurement": "inhibition", "setting": "Plasmodium falciparum [2]", "value": -14, "unit": "%"}]}, {"compound": "c1ccc(CNc2nc(Nc3ccccc3)nc3ccccc23)cc1", "values": [{"measurement": "inhibition", "setting": "Plasmodium berghei", "value": -4.491, "unit": "%"}, {"measurement": "inhibition", "setting": "Plasmodium falciparum [1]", "value": -50.6, "unit": "%"}, {"measurement": "inhibition", "setting": "Plasmodium falciparum [2]", "value": -29.2, "unit": "%"}]}, {"compound": "CCOc1ccc(N2C(N)=NC(N)=NC2(C)C)cc1.Cl", "values": [{"measurement": "inhibition", "setting": "Plasmodium berghei", "value": -12.23, "unit": "%"}, {"measurement": "inhibition", "setting": "Plasmodium falciparum [1]", "value": 66.8, "unit": "%"}, {"measurement": "inhibition", "setting": "Plasmodium falciparum [2]", "value": -42, "unit": "%"}]}, {"compound": "CCOC(=O)C1=C(C)N=c2sc(=Cc3ccccc3O)c(=O)n2C1c1ccc(OC)c2ccccc12", "note": "(configuration not stated)", "values": [{"measurement": "inhibition", "setting": "Plasmodium berghei", "value": 3.682, "unit": "%"}, {"measurement": "inhibition", "setting": "Plasmodium falciparum [1]", "value": -4.7, "unit": "%"}, {"measurement": "inhibition", "setting": "Plasmodium falciparum [2]", "value": -23.7, "unit": "%"}]}, {"compound": "COc1ccc(C=C2SC(Nc3ccc(F)cc3)=NC2=O)c(OC)c1", "values": [{"measurement": "inhibition", "setting": "Plasmodium berghei", "value": 49.11, "unit": "%"}, {"measurement": "inhibition", "setting": "Plasmodium falciparum [1]", "value": 42.9, "unit": "%"}, {"measurement": "inhibition", "setting": "Plasmodium falciparum [2]", "value": -24.5, "unit": "%"}]}, {"compound": "COc1ccc(-c2nc(N3CCN(C(=O)C4CCCCC4)CC3)c3c4c(sc3n2)CCCC4)cc1", "values": [{"measurement": "inhibition", "setting": "Plasmodium berghei", "value": -8.277, "unit": "%"}, {"measurement": "inhibition", "setting": "Plasmodium falciparum [1]", "value": 1.21, "unit": "%"}, {"measurement": "inhibition", "setting": "Plasmodium falciparum [2]", "value": -9.88, "unit": "%"}]}]}
